# According to patent US5571807A, “1,5 benzothiazepinone dervatives their preparation and pharmaceutical use” (Istituto Luso Farmaco d'Italia S.p.A., priority 1990, dated 1996):
# Counter-ions that a name gives are not always drawn.
# How the values were obtained:
# [1] = system: vasopressine-induced angina in the rat; assay: Vasopressine-induced angina in the rat; format: in vivo; conditions: for ED50: iv, read-out: angina vasopressine test rat (iv) ED50
# [2] = Pharmacokinetic studies in the conscious incannulated rat; conditions: in vivo, po, 50 mg/kg/os, read-out: pharmacokinetics in the rat t 1/2
# rabbit isolated atrium = rabbit isolated atrium (Oryctolagus cuniculus, UniProt P15381); assay: cell-based; conditions: inhibition of tonic contraction; read-out: rabbit isolated atrium (pA2) (converted)
# [3] = molecular target: 3H-diltiazem binding sites in the cardiac tissue (Homo sapiens, UniProt Q13936); assay: biochemical; conditions: displacement of 3H-diltiazem, read-out: receptorial binding (pIC50) (converted)
# [4] = humans; cited from earlier work
# Sequence of rabbit isolated atrium (P15381 whole entry, other chains not shown): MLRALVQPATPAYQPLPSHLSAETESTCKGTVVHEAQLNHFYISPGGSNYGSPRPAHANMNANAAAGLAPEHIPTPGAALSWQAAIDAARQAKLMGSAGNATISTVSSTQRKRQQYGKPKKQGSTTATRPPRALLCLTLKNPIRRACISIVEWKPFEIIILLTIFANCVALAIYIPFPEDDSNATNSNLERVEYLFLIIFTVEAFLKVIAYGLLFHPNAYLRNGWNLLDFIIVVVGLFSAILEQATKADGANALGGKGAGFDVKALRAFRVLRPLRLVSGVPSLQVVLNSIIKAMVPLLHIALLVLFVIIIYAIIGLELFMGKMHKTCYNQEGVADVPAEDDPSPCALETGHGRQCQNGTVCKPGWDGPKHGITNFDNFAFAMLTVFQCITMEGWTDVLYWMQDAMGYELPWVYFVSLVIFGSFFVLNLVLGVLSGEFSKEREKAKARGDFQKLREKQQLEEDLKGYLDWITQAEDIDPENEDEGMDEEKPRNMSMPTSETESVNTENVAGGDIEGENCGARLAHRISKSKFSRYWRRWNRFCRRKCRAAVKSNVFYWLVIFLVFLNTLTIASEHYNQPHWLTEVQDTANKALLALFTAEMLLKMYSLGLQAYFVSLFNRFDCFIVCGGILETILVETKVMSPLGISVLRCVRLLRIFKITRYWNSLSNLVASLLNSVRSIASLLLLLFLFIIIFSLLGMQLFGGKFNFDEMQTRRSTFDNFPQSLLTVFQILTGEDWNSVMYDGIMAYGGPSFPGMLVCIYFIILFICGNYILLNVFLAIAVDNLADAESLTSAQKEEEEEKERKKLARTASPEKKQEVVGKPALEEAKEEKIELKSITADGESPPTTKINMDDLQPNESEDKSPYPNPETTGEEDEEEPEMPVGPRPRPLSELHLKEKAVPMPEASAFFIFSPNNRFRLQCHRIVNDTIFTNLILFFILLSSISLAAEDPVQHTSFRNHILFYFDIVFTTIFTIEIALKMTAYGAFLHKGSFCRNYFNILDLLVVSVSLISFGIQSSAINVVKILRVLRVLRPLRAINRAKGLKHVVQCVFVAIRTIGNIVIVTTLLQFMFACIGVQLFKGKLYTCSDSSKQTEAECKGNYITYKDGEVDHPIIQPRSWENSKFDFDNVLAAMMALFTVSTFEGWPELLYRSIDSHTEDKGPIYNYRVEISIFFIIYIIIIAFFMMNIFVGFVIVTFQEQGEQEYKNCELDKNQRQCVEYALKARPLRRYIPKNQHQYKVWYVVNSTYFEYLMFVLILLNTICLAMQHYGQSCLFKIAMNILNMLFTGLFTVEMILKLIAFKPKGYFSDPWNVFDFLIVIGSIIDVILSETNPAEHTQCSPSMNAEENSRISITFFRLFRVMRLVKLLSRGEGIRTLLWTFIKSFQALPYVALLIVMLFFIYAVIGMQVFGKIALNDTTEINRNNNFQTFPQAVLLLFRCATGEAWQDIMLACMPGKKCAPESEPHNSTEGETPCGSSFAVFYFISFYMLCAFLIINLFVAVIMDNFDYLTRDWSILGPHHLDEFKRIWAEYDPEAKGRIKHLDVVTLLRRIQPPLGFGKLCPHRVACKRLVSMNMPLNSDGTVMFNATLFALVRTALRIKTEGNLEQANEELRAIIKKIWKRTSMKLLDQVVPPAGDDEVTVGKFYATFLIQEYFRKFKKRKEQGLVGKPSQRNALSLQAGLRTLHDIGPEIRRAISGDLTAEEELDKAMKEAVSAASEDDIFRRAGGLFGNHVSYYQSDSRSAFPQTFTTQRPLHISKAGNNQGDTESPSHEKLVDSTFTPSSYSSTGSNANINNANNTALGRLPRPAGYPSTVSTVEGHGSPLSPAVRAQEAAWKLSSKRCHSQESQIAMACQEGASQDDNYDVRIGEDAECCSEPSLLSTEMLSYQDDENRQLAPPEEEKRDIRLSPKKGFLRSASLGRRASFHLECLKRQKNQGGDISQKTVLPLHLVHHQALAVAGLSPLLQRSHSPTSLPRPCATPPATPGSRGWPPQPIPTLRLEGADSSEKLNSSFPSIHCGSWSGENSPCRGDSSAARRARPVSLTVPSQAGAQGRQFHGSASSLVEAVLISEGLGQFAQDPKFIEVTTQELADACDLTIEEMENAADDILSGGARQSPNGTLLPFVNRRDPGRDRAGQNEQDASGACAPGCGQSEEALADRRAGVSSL
# Sequence of rabbit isolated atrium (P13806 27-960 partner limits assumed, other chains not shown): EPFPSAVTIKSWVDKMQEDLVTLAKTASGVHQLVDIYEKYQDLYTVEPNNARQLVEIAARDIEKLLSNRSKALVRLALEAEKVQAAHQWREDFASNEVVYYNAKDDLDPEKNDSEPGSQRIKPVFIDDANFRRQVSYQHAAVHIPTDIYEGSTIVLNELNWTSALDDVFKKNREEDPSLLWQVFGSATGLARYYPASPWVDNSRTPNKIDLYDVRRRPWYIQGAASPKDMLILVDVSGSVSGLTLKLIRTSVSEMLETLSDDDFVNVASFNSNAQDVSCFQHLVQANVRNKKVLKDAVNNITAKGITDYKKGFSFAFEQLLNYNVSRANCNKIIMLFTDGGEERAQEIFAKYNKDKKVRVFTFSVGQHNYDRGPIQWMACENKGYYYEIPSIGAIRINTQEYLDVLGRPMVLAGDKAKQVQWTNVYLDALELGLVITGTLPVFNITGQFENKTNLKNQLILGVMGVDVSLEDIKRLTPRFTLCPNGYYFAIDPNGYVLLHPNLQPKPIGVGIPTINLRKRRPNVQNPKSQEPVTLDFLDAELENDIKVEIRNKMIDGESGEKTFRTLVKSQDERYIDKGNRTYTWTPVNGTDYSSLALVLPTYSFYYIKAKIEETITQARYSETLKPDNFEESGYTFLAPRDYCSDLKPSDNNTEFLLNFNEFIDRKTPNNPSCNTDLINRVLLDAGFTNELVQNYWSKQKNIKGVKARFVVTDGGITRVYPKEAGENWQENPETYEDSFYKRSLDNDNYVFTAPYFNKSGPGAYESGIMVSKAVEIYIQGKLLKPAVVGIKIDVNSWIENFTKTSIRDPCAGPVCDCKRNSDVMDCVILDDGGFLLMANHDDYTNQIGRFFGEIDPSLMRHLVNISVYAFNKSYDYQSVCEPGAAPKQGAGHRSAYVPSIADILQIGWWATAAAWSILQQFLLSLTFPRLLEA
# Sequence of rabbit isolated atrium (P13806 961-1106 partner limits assumed, other chains not shown): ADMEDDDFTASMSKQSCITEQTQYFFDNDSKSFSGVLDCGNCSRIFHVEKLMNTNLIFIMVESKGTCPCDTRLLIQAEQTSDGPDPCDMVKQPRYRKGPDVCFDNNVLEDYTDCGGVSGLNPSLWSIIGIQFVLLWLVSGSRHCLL
half-life [2],Kb (rabbit isolated atrium),IC50 [3],Compound,angina vasopressine test rat (iv) duration [1],ED50 [1],elimination half-life [4]
1.53 h,50.1 nM,64.6 nM,"COc1ccc([C@@H]2Sc3ccccc3N(CCN(C)C(C)C)C(=O)[C@@H]2OC(C)=O)cc1 [Compound A, Cis(+)-3-acetyloxy-2,3-dihydro-5-(2-N-isopropyl-N-methylaminoethyl)-2-(4-methoxyphenyl)-1,5-benzothiazepin-4(5H)-one hydrobromide]",78 min,0.49 mg/kg,
1.18 h,63.1 nM,30.2 nM,"COc1ccc([C@@H]2Sc3ccccc3N(CC(C)CN(C)C)C(=O)[C@@H]2OC(C)=O)cc1.O=C(O)C(=O)O (single isomer, unassigned; diastereoisomer b) [Compound B, Cis(+)-3-acetyloxy-2,3-dihydro-5-(2-methyl-3-dimethylaminopropyl)-2-(4-methoxyphenyl)-1,5-benzothiazepin-4(5H)-one oxalate (diastereoisomer B)]",72 min,0.54 mg/kg,
0.95 h,,,"COc1ccc([C@@H]2Sc3ccccc3N(CCN(C)C)C(=O)[C@@H]2OC(C)=O)cc1 [Diltiazem, reference compound]",,0.45 mg/kg,short elimination half-life
